In patent publication EP1171107B1, “USE OF A PHARMACEUTICAL COMPOSITION IN THE MANUFACTURE OF A MEDICAMENT FOR THE TREATMENT OF PATHOLOGICAL CONDITIONS OF THE EYE CAUSED BY BACTERIA, VIRUSES, FUNGI, YEASTS AND PROTOZOA” (Dr. GERHARD MANN chem.-pharm. Fabrik GmbH, priority 1999, dated 2000):

Columns and labels:
Type in all cases: cell-based
E.coli [1] = assay: Quantitative germ count (re-isolation, surface method) after inoculating the test preparation; settings: Ausgangskeimzahl 2,7 x 10^5 KBE/ml
H.influenzae = assay: as above; settings: Ausgangskeimzahl 2,8 x 10^5 KBE/ml
Method in brief: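 Surviving germs were counted by the surface method: an aliquot was spiral-plated on Kochblut-Agar and incubated at 33±2°C for max. 4 Tage, giving re-isolated counts in KBE/ml with a detection limit of 100 KBE/ml. Initial germ counts were also set by spiral-plater surface plating. The H. influenzae strain was pretested biochemically for identity and purity.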

S.aureus [2] = assay: as above; settings: Ausgangskeimzahl 2,6 x 10^5 KBE/ml
Method in brief: (§1)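 Test preparations were contaminated with ca. 10^5 CFU/ml of each strain, then sampled at 2, 6, 8, 24, 32, 48 and 72 h. Cells were centrifuged 10 min at 3000 rpm, washed in NaCl-peptone buffer, resuspended and spiral-plated on Caso agar at 33±2°C for max. 4 days. Detection limit was 100 CFU/ml.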

Sc. pneumoniae [3] = assay: as above; settings: Ausgangskeimzahl 3,7 x 10^5 KBE/ml
Method in brief: as §1

P.aeruginosa [4] = assay: as above; settings: Ausgangskeimzahl 2,7 x 10^5 KBE/ml
Method in brief: as §1

S.epidermidis [5] = assay: as above; settings: Ausgangskeimzahl 2,1 x 10^5 KBE/ml
Method in brief: as §1

E.coli [6] = assay: Qualitative examination: enrichment of the inoculated test preparation in broth
Method in brief: (§2)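 Test preparations (5 ml) were inoculated with ca. 10^5 CFU/ml and sampled after 2, 6, 8, 24, 32, 48 and 72 h. Cells were pelleted, washed and resuspended in NaCl-peptone buffer; 2 ml went into 20 ml Caso broth (Fildes medium for H. influenzae), incubated up to 4 days at 33±2°C.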

S.aureus [7] = assay: as above
Method in brief: as §2

S.epidermidis [8] = assay: as above
Method in brief: as §2

Sc. pneumoniae [9] = assay: as above
Method in brief: as §2

P.aeruginosa [10] = assay: as above
Method in brief: as §2

## Benzalkoniumchlorid [Benzalkoniumchlorid 0,006 Gew.-%]
E.coli [1]; 2 h after inoculation
  Ergebnis der Reisolierung (in KBE/ml): <100 KBE/ml
E.coli [1]; 4 h after inoculation
  Ergebnis der Reisolierung (in KBE/ml): <100 KBE/ml
E.coli [1]; 6 h after inoculation
  Ergebnis der Reisolierung (in KBE/ml): <100 KBE/ml
E.coli [1]; 8 h after inoculation
  Ergebnis der Reisolierung (in KBE/ml): <100 KBE/ml
E.coli [1]; 24 h after inoculation
  Ergebnis der Reisolierung (in KBE/ml): <100 KBE/ml
E.coli [1]; 32 h after inoculation
  Ergebnis der Reisolierung (in KBE/ml): <100 KBE/ml
E.coli [1]; 48 h after inoculation
  Ergebnis der Reisolierung (in KBE/ml): <100 KBE/ml
E.coli [1]; 72 h after inoculation
  Ergebnis der Reisolierung (in KBE/ml): <100 KBE/ml
H.influenzae; 2 h after inoculation
  Ergebnis der Reisolierung (in KBE/ml): <100 KBE/ml
H.influenzae; 4 h after inoculation
  Ergebnis der Reisolierung (in KBE/ml): <100 KBE/ml
H.influenzae; 6 h after inoculation
  Ergebnis der Reisolierung (in KBE/ml): <100 KBE/ml
H.influenzae; 8 h after inoculation
  Ergebnis der Reisolierung (in KBE/ml): <100 KBE/ml
H.influenzae; 24 h after inoculation
  Ergebnis der Reisolierung (in KBE/ml): <100 KBE/ml
H.influenzae; 32 h after inoculation
  Ergebnis der Reisolierung (in KBE/ml): <100 KBE/ml
H.influenzae; 48 h after inoculation
  Ergebnis der Reisolierung (in KBE/ml): <100 KBE/ml
H.influenzae; 72 h after inoculation
  Ergebnis der Reisolierung (in KBE/ml): <100 KBE/ml
S.aureus [2]; 2 h after inoculation
  Ergebnis der Reisolierung (in KBE/ml): <100 KBE/ml
S.aureus [2]; 4 h after inoculation
  Ergebnis der Reisolierung (in KBE/ml): <100 KBE/ml
S.aureus [2]; 6 h after inoculation
  Ergebnis der Reisolierung (in KBE/ml): <100 KBE/ml
S.aureus [2]; 8 h after inoculation
  Ergebnis der Reisolierung (in KBE/ml): <100 KBE/ml
S.aureus [2]; 24 h after inoculation
  Ergebnis der Reisolierung (in KBE/ml): <100 KBE/ml
S.aureus [2]; 32 h after inoculation
  Ergebnis der Reisolierung (in KBE/ml): <100 KBE/ml
S.aureus [2]; 48 h after inoculation
  Ergebnis der Reisolierung (in KBE/ml): <100 KBE/ml
S.aureus [2]; 72 h after inoculation
  Ergebnis der Reisolierung (in KBE/ml): <100 KBE/ml
Sc. pneumoniae [3]; 2 h after inoculation
  Ergebnis der Reisolierung (in KBE/ml): <100 KBE/ml
Sc. pneumoniae [3]; 4 h after inoculation
  Ergebnis der Reisolierung (in KBE/ml): <100 KBE/ml
Sc. pneumoniae [3]; 6 h after inoculation
  Ergebnis der Reisolierung (in KBE/ml): <100 KBE/ml
Sc. pneumoniae [3]; 8 h after inoculation
  Ergebnis der Reisolierung (in KBE/ml): <100 KBE/ml
Sc. pneumoniae [3]; 24 h after inoculation
  Ergebnis der Reisolierung (in KBE/ml): <100 KBE/ml
Sc. pneumoniae [3]; 32 h after inoculation
  Ergebnis der Reisolierung (in KBE/ml): <100 KBE/ml
Sc. pneumoniae [3]; 48 h after inoculation
  Ergebnis der Reisolierung (in KBE/ml): <100 KBE/ml
Sc. pneumoniae [3]; 72 h after inoculation
  Ergebnis der Reisolierung (in KBE/ml): <100 KBE/ml
P.aeruginosa [4]; 2 h after inoculation
  Ergebnis der Reisolierung (in KBE/ml): <100 KBE/ml
P.aeruginosa [4]; 4 h after inoculation
  Ergebnis der Reisolierung (in KBE/ml): <100 KBE/ml
P.aeruginosa [4]; 6 h after inoculation
  Ergebnis der Reisolierung (in KBE/ml): <100 KBE/ml
P.aeruginosa [4]; 8 h after inoculation
  Ergebnis der Reisolierung (in KBE/ml): <100 KBE/ml
P.aeruginosa [4]; 24 h after inoculation
  Ergebnis der Reisolierung (in KBE/ml): <100 KBE/ml
P.aeruginosa [4]; 32 h after inoculation
  Ergebnis der Reisolierung (in KBE/ml): <100 KBE/ml
P.aeruginosa [4]; 48 h after inoculation
  Ergebnis der Reisolierung (in KBE/ml): <100 KBE/ml
P.aeruginosa [4]; 72 h after inoculation
  Ergebnis der Reisolierung (in KBE/ml): <100 KBE/ml
S.epidermidis [5]; 2 h after inoculation
  Ergebnis der Reisolierung (in KBE/ml): <100 KBE/ml
S.epidermidis [5]; 4 h after inoculation
  Ergebnis der Reisolierung (in KBE/ml): <100 KBE/ml
S.epidermidis [5]; 6 h after inoculation
  Ergebnis der Reisolierung (in KBE/ml): <100 KBE/ml
S.epidermidis [5]; 8 h after inoculation
  Ergebnis der Reisolierung (in KBE/ml): <100 KBE/ml
S.epidermidis [5]; 24 h after inoculation
  Ergebnis der Reisolierung (in KBE/ml): <100 KBE/ml
S.epidermidis [5]; 32 h after inoculation
  Ergebnis der Reisolierung (in KBE/ml): <100 KBE/ml
S.epidermidis [5]; 48 h after inoculation
  Ergebnis der Reisolierung (in KBE/ml): <100 KBE/ml
S.epidermidis [5]; 72 h after inoculation
  Ergebnis der Reisolierung (in KBE/ml): <100 KBE/ml
E.coli [6]; 2 h after inoculation
  Ergebnis der Reisolierung qualitiativ (+/-) nach Anreicherung: -
E.coli [6]; 4 h after inoculation
  Ergebnis der Reisolierung qualitiativ (+/-) nach Anreicherung: -
E.coli [6]; 6 h after inoculation
  Ergebnis der Reisolierung qualitiativ (+/-) nach Anreicherung: -
E.coli [6]; 8 h after inoculation
  Ergebnis der Reisolierung qualitiativ (+/-) nach Anreicherung: -
E.coli [6]; 24 h after inoculation
  Ergebnis der Reisolierung qualitiativ (+/-) nach Anreicherung: -
E.coli [6]; 32 h after inoculation
  Ergebnis der Reisolierung qualitiativ (+/-) nach Anreicherung: -
E.coli [6]; 48 h after inoculation
  Ergebnis der Reisolierung qualitiativ (+/-) nach Anreicherung: -
E.coli [6]; 72 h after inoculation
  Ergebnis der Reisolierung qualitiativ (+/-) nach Anreicherung: -
S.aureus [7]; 2 h after inoculation
  Ergebnis der Reisolierung qualitiativ (+/-) nach Anreicherung: -
S.aureus [7]; 4 h after inoculation
  Ergebnis der Reisolierung qualitiativ (+/-) nach Anreicherung: -
S.aureus [7]; 6 h after inoculation
  Ergebnis der Reisolierung qualitiativ (+/-) nach Anreicherung: -
S.aureus [7]; 8 h after inoculation
  Ergebnis der Reisolierung qualitiativ (+/-) nach Anreicherung: -
S.aureus [7]; 24 h after inoculation
  Ergebnis der Reisolierung qualitiativ (+/-) nach Anreicherung: -
S.aureus [7]; 32 h after inoculation
  Ergebnis der Reisolierung qualitiativ (+/-) nach Anreicherung: -
S.aureus [7]; 48 h after inoculation
  Ergebnis der Reisolierung qualitiativ (+/-) nach Anreicherung: -
S.aureus [7]; 72 h after inoculation
  Ergebnis der Reisolierung qualitiativ (+/-) nach Anreicherung: -
S.epidermidis [8]; 2 h after inoculation
  Ergebnis der Reisolierung qualitiativ (+/-) nach Anreicherung: -
S.epidermidis [8]; 4 h after inoculation
  Ergebnis der Reisolierung qualitiativ (+/-) nach Anreicherung: -
S.epidermidis [8]; 6 h after inoculation
  Ergebnis der Reisolierung qualitiativ (+/-) nach Anreicherung: -
S.epidermidis [8]; 8 h after inoculation
  Ergebnis der Reisolierung qualitiativ (+/-) nach Anreicherung: -
S.epidermidis [8]; 24 h after inoculation
  Ergebnis der Reisolierung qualitiativ (+/-) nach Anreicherung: -
S.epidermidis [8]; 32 h after inoculation
  Ergebnis der Reisolierung qualitiativ (+/-) nach Anreicherung: -
S.epidermidis [8]; 48 h after inoculation
  Ergebnis der Reisolierung qualitiativ (+/-) nach Anreicherung: -
S.epidermidis [8]; 72 h after inoculation
  Ergebnis der Reisolierung qualitiativ (+/-) nach Anreicherung: -
Sc. pneumoniae [9]; 2 h after inoculation
  Ergebnis der Reisolierung qualitiativ (+/-) nach Anreicherung: -
Sc. pneumoniae [9]; 4 h after inoculation
  Ergebnis der Reisolierung qualitiativ (+/-) nach Anreicherung: -
Sc. pneumoniae [9]; 6 h after inoculation
  Ergebnis der Reisolierung qualitiativ (+/-) nach Anreicherung: -
Sc. pneumoniae [9]; 8 h after inoculation
  Ergebnis der Reisolierung qualitiativ (+/-) nach Anreicherung: -
Sc. pneumoniae [9]; 24 h after inoculation
  Ergebnis der Reisolierung qualitiativ (+/-) nach Anreicherung: -
Sc. pneumoniae [9]; 32 h after inoculation
  Ergebnis der Reisolierung qualitiativ (+/-) nach Anreicherung: -
Sc. pneumoniae [9]; 48 h after inoculation
  Ergebnis der Reisolierung qualitiativ (+/-) nach Anreicherung: -
Sc. pneumoniae [9]; 72 h after inoculation
  Ergebnis der Reisolierung qualitiativ (+/-) nach Anreicherung: -
P.aeruginosa [10]; 2 h after inoculation
  Ergebnis der Reisolierung qualitiativ (+/-) nach Anreicherung: -
P.aeruginosa [10]; 4 h after inoculation
  Ergebnis der Reisolierung qualitiativ (+/-) nach Anreicherung: -
P.aeruginosa [10]; 6 h after inoculation
  Ergebnis der Reisolierung qualitiativ (+/-) nach Anreicherung: -
P.aeruginosa [10]; 8 h after inoculation
  Ergebnis der Reisolierung qualitiativ (+/-) nach Anreicherung: -
P.aeruginosa [10]; 24 h after inoculation
  Ergebnis der Reisolierung qualitiativ (+/-) nach Anreicherung: -
P.aeruginosa [10]; 32 h after inoculation
  Ergebnis der Reisolierung qualitiativ (+/-) nach Anreicherung: -
P.aeruginosa [10]; 48 h after inoculation
  Ergebnis der Reisolierung qualitiativ (+/-) nach Anreicherung: -
P.aeruginosa [10]; 72 h after inoculation
  Ergebnis der Reisolierung qualitiativ (+/-) nach Anreicherung: -
